Source: patent US20060258598A1, “Alpha-keto carbonyl calpain inhibitors” (priority 2003, published 2006)

Columns and labels:
[1] = system: Primary fibroblasts from donors with Friedreich Ataxia (FRDA); test: BSO assay (cell viability under BSO-induced oxidative stress); type: cell-based, human; settings: 24 h preincubation, 1 mM BSO; for EC50: Homo sapiens, Fibroblast
Description: Primary fibroblasts were derived from donors with molecular diagnosis for Friedreich Ataxia (FRDA) and control donors with no mitochondrial disease. Cell lines were obtained from Coriell Cell Repositories (Camden, N.J.; catalog numbers GM04078, GM08402 and GM08399 respectively). All cell types were diagnosed on the molecular level for intronic […] triplet repeat length of at least 400-450 repeats using a PCR-based method. Experiments were carried out as described in the literature (M. L. Jauslin et al., Human Mol. Genet., 2002, 11, 3055-3063): Cells were seeded in microtiter plates at a density of 4'000 cells per 100 μl in growth medium consisting of 25% (v/v) M199 EBS and 64% (v/v) MEM EBS without phenol red (Bioconcept, Allschwil, Switzerland) supplemented with 10% (v/v) fetal calf serum (PAA Laboratories, Linz, Austria), 100 U/ml penicillin, 100 μg/ml streptomycin (PAA Laboratories, Linz, Austria), 10 μg/ml insulin (Sigma, Buchs, Switzerland), 10 ng/ml EGF (Sigma, Buchs, Switzerland), 10 ng/ml bFGF (PreproTech, Rocky Hill, N.J.) and 2 mM glutamine (Sigma, Buchs, Switzerland). The cells were incubated in the presence of various test compounds for 24 h before addition of L-buthionine-(S,R)-sulfoximine (BSO) to a final concentration of 1 mM. Cell viability was measured after the first signs of toxicity appeared in the BSO-treated controls (typically after 16 to 48 h). The cells were stained for 60 min at room temperature in PBS with 1.2 μM calcein AM and 4 μM ethidium homodimer (Live/Dead assay, Molecular Probes, Eugene, Oreg.). Fluorescence intensity was measured with a Gemini Spectramax XS spectrofluorimeter (Molecular Devices, Sunnyvale, Calif.) using excitation and emission wavelengths of 485 nm and 525 nm respectively.

human μ-calpain = target: T1, human μ-calpain (Homo sapiens, UniProt P07384); test: Enzymatic calpain inhibition assay; type: biochemical; settings: substrate Suc-Leu-Tyr-AMC, read-out: Calp I IC50
T1 construct: purchased Calbiochem
T1 sequence (P07384 1-714): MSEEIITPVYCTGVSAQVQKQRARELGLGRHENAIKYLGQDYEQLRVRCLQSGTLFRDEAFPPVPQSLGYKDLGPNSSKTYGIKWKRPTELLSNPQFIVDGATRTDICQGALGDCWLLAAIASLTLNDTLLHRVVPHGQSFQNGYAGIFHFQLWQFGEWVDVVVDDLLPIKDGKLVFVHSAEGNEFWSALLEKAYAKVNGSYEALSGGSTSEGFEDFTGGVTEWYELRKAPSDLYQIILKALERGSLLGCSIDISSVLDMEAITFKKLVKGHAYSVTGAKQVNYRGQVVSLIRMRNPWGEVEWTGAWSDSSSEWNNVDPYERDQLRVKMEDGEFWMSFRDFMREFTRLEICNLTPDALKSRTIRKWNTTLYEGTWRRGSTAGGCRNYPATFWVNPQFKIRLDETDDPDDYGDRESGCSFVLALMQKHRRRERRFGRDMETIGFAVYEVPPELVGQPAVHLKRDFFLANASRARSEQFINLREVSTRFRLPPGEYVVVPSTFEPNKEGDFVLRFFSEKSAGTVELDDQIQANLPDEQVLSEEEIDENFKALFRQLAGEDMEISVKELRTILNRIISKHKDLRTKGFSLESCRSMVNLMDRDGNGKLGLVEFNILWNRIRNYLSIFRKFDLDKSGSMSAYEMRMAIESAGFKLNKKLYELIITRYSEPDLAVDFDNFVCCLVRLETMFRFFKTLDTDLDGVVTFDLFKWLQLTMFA
T1 sequence (P04632 1-268 partner): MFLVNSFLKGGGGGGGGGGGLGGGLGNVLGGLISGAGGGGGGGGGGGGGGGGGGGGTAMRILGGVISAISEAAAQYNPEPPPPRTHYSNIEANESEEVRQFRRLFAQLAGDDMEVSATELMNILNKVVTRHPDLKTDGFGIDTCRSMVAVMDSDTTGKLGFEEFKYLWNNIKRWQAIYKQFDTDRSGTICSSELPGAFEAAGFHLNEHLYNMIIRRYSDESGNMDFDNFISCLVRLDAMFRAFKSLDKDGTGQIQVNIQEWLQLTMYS
Description: The Ki value was also determined in some cases. These criteria were used to measure the inhibitory effect of the compounds (I) on calpain I, calpain II and cathepsin B.
Enzymatic Calpain Inhibition Assay
The inhibitory properties of calpain inhibitors are tested in 100 μl of a buffer containing 100 mM imidazole pH 7.5, 5 mM L-Cystein-HCl, 5 mM CaCl2, 250 μM of the calpain fluorogenic substrate Suc-Leu-Tyr-AMC (Sigma) (Sasaki et al., J. Biol. Chem., 1984, 259, 12489-12949) dissolved in 2.5 μl DMSO and 0.5 μg of human μ-calpain (Calbiochem). The inhibitors dissolved in 1 μl DMSO are added to the reaction buffer. The fluorescence of the cleavage product 7-amino-4-methylcoumarin (AMC) is followed in a SPECTRAmax GEMINI XS (Molecular Device) fluorimeter at λex=360 nm and λem=440 nm at 30° C. during 30 min at intervals of 30 sec in 96-well plates (Greiner). The initial reaction velocity at different inhibitor concentrations is plotted against the inhibitor concentration and the IC50 values determined graphically.

[2] = system: cellular calpains in C2C12 myoblasts; test: Calpain inhibition assay in C2C12 myoblasts; type: cell-based; settings: 2 h incubation, calcium ionophore Br-A-23187, read-out: Calp I IC50 Myoblast
Description: Calpain Inhibition Assay in C2C12 Myoblasts
This assay is aimed at monitoring the ability of the substance to inhibit cellular calpains. C2C12 myoblasts are grown in 96-well plates in growth medium (DMEM, 20% foetal calf serum) until they reach confluency. The growth medium is then replaced by fusion medium (DMEM, 5% horse serum). 24 hours later the fusion medium is replaced by fusion medium containing the test substances dissolved in 1 μl DMSO. After 2 hours of incubation at 37° C. the cells are loaded with the calpain fluorogenic substrate Suc-Leu-Tyr-AMC at 400 μM in 50 μl of a reaction buffer containing 135 mM NaCl; 5 mM KCl; 4 mM CaCl2; 1 mM MgCl2; 10 mM Glucose; 10 mM HEPES pH 7.25 for 20 min at room temperature. The calcium influx, necessary to activate the cellular calpains, is evoked by the addition of 50 μl reaction buffer containing 20 μM of the calcium ionophore Br-A-23187 (Molecular Probes). The fluorescence of the cleavage product AMC is measured as described above during 60 min at 37° C. at intervals of 1 min. The IC50 values are determined as described above. Comparison of the IC50 determined in the enzymatic calpain inhibition assay to the IC50 determined in the C2C12 myoblasts calpain inhibiton assay, allows to evaluate the cellular uptake or the membrane permeability of the substance.

| IC50 (human μ-calpain) [nM] | IC50 [2] [nM] | Structure (SMILES) | EC50 [1] [nM] | BSO EC50 [1] |
| --- | --- | --- | --- | --- |
| 30 | 1700 | CCNC(=O)C(=O)[C@H](Cc1ccc(C#N)cc1)NC(=O)[C@H](CC(C)C)NC(=O)CCCCC1CCSS1 (stereo partly drawn) [Example 132] | 5000 | – |
| 50 | 2500 | CCNC(=O)C(=O)[C@H](Cc1ccc(C#N)cc1)NC(=O)[C@H](CC(C)C)NC(=O)CCCCC1CCS[S+]1[O-] (stereo partly drawn) [Example 133] | 15000 | – |
| 20 | 8000 | CCNC(=O)C(=O)[C@H](Cc1ccc([N+](=O)[O-])cc1)NC(=O)[C@H](CC(C)C)NC(=O)CCCCC1CCSS1 (stereo partly drawn) [Example 136] | – | inactive |
| 80 | 3500 | CCNC(=O)C(=O)[C@H](Cc1ccccc1)NC(=O)[C@@H](NC(=O)CCCCC1CCSS1)C(C)C (stereo partly drawn) [Example 138] | 10000 | – |
| 100 | 20000 | CCNC(=O)C(=O)[C@H](Cc1ccccc1)NC(=O)[C@H](CC(C)C)NC(=O)CCCCC1CCS[S+]1[O-] (stereo partly drawn) [Example 142] | 3000 | – |
| 120 | 10000 | CCNC(=O)C(=O)[C@H](Cc1ccccc1)NC(=O)[C@H](CC(C)(C)C)NC(=O)CCCCC1CCSS1 (stereo partly drawn) [Example 143] | 2000 | – |
| 80 | 5000 | CCNC(=O)C(=O)[C@H](Cc1ccccc1)NC(=O)[C@H](CC(C)(C)C)NC(=O)CCCCC1CCS[S+]1[O-] (stereo partly drawn) [Example 144] | 7000 | – |
| 100 | 6000 | CCNC(=O)C(=O)[C@H](Cc1cccs1)NC(=O)[C@@H](NC(=O)CCCCC1CCSS1)C(C)C (stereo partly drawn) [Example 145] | 1500 | – |
| 40 | 2500 | CCNC(=O)C(=O)[C@H](Cc1cccs1)NC(=O)[C@H](CC(C)C)NC(=O)CCCCC1CCSS1 (stereo partly drawn) [Example 147] | 1500 | – |
| 400 | 2000 | CCNC(=O)C(=O)[C@@H](NC(=O)[C@@H](NC(=O)CCCCC1CCSS1)C(C)C)c1ccccc1 (stereo partly drawn) [Example 153] | 2500 | – |
| 100 | 5000 | CCNC(=O)C(=O)[C@H](Cc1ccc(Cl)cc1)NC(=O)[C@@H](NC(=O)CCCCC1SC[C@@H]2NC(=O)N[C@H]12)C(C)C (stereo partly drawn) [Example 159] | – | inactive |
| 85 | 11000 | CCNC(=O)C(=O)[C@H](Cc1ccc(OC)cc1)NC(=O)[C@@H](NC(=O)CCCCC1SC[C@@H]2NC(=O)N[C@H]12)C(C)C (stereo partly drawn) [Example 165] | 60000 | – |
| 40 | 30000 | CCNC(=O)C(=O)[C@H](Cc1ccc(Cl)cc1)NC(=O)[C@@H](NC(=O)CCNC(=O)CCCCC1CCSS1)C(C)C (stereo partly drawn) [Example 172] | 3000 | – |
| 200 | 40000 | CCNC(=O)C(=O)[C@H](Cc1ccc(Cl)cc1)NC(=O)[C@@H](NC(=O)CCNC(=O)CCCCC1CCS[S+]1[O-])C(C)C (stereo partly drawn) [Example 173] | 25000 | – |
| 20 | 2500 | CCNC(=O)C(=O)[C@H](Cc1ccc(Cl)cc1)NC(=O)[C@@H](NC(=O)CCCNC(=O)CCCCC1CCSS1)C(C)C (stereo partly drawn) [Example 174] | 6000 | – |
| 100 | 20000 | CCNC(=O)C(=O)[C@H](Cc1ccc(Cl)cc1)NC(=O)[C@@H](NC(=O)CCCCNC(=O)CCCCC1CCSS1)C(C)C (stereo partly drawn) [Example 175] | > 100000 | – |
| 40 | 2500 | CCNC(=O)C(=O)[C@H](Cc1ccc(Cl)cc1)NC(=O)[C@H](CC(C)C)NC(=O)CNC(=O)CCCCC1CCSS1 (stereo partly drawn) [Example 176] | 20000 | – |
| 9 | 2500 | CCNC(=O)C(=O)[C@H](Cc1ccc(Cl)cc1)NC(=O)[C@H](CC(C)C)NC(=O)CNC(=O)CCCCC1CCS[S+]1[O-] (stereo partly drawn) [Example 177] | 6000 | – |
| 100 | 5500 | CCNC(=O)C(=O)[C@H](Cc1ccc(Br)cc1)NC(=O)[C@@H](NC(=O)CNC(=O)CCCCC1CCS[S+]1[O-])C(C)C (stereo partly drawn) [Example 184] | 10000 | – |
